Test system: OB-R
Assay: p-Stat3 expression in rabbit endometrial cells (immunocytochemistry, Western blot)
Assay type: cell-based
Settings: for effect on basal expression of p-Stat3 / effect on leptin up-regulation of Stat3 phosphorylation: rESC and rEEC; for effect on basal expression of p-Stat3: Western blot, 3 to 300 nM; for effect on leptin up-regulation of Stat3 phosphorylation: peptides 3 to 300 nM, antibody 1-10 μg/ml
Protocol: Rabbit endometrial cells (5×10^5 cells/well) were cultured for 5-9 days in DMEM-MCDB105 (3:1) medium containing 10% fetal bovine serum (FBS), 5 μg/ml insulin, 1% amphopthericin B, 100 μg/ml streptomycin and 100 U/ml penicillin until confluent layers were obtained. The cells were washed twice with 100 mM phosphate saline buffer (PBS) −2% BSA (w/v), pH 7.2 and cultured for an additional 2 days in the same medium but without FBS (basal medium). This procedure was performed to reduce any effects of cytokines from FBS on the phosphorylation rate of Stat3 as well as the expression of other cytokines and their receptors. Cells were washed as described before and cultured in basal medium containing leptin (0-10 nM), OB-R antibody (1-20 μg/ml) and/or LPA-2 peptides (0-300 nM). Cultures were stopped at 24 h and the cells were used for immunocytochemistry, binding studies and western blot analysis. The conditioned media were collected, lyophilized and stored at −80° C. for ELISA determinations. Duplicate wells were run for each treatment and the experiments repeated at least three times with different cell preparations from different rabbits. Controls were the same cellular preparations cultured in basal medium containing non-specific goat IgGs and LPA-2Sc.
The rabbit endometrial cells were cultured as described above in duplicate on 8-well glass-bottom culture plates (Nalgene Nunc International, Naperville, Ill.) and fixed with methanol at −20° C. for 20 min for immunocytochemical studies. All the antibodies tested were diluted in PBS-2% BSA (w/v; buffer A).
Anti IL-1R tl (1 μg/ml), anti LIF-R (2 μg/ml), anti vimentin (1:50), anti cytokeratin (1:50) and anti p-Stat3 (1 μg/ml) antibodies were used to assess the expression of the respective antigens by rEEC and rESC cultures. After incubation with primary antibodies the cells were incubated with a streptavidin-biotin-alkaline phosphatase system according to the manufacturer directions (Vectastain, ABC-AP kit, Vector Laboratories, Burlingame, Calif.) and counter-stained with hematoxylin (Dako). Negative controls included cell preparations in which the primary antibodies were substituted by irrelevant species matched IgGs.
After culture in the presence of leptin, LPAs or antibodies, the endometrial cells were washed with ice-cold PBS and lysed by homogenization on ice with lysis buffer [[…] Tris, pH 7.4, containing 137 nM NaCl, 2 mM EDTA, 10% glycerol, 50 mM β-glycerophosphate, 50 nM NaF, 1% Nonidet P-40, 2 mM phenyl-methylsulfonyl fluoride, 2 mM sodium orthovanadate, 100 μM antipain, 0.1 mg/ml trypsin inhibitor and protease cocktail inhibitor 1:50 (Sigma)]. Cellular lysates were centrifuged at 24000 g at 4° C. for 10 min. Protein concentrations were determined using the Bradford protein assay (BioRad Laboratories Inc., Hercules, Calif.).
Protein extracts from cell lysates were combined (1:1) with Laemmli buffer (2× concentrated) and 10 μg of proteins were loaded per lane on 7.5% (for p-Stat3, IL-1R tl and LIF-R) and 10% (for OB-R) SDS-PAGE gels. Electrophoresis was performed at 65 V for 1-1.5 h (BioRad, electrophoresis apparatus). Electroblotting onto 0.2 μm nitrocellulose membranes was performed at 22V overnight at 4° C. in 48 nM Tris-39 nM glycine buffer containing 0.037% SDS and 20% methanol. […]

Substance	effect on basal expression of p-Stat3	effect on leptin up-regulation of Stat3 phosphorylation (leptin 3 nM)	p-Stat3 expression after leptin (rESC, immunocytochemistry, leptin 3 nM)
VAEVLNRSDLIQRISFSLDLNNSKLH [LPA-2Sc, scrambled version of LPA-2, negative control, reference compound]	No inhibitory effect on p-Stat3 expression	not observed	
leptin: human recombinant leptin (R&D Systems), OB-R ligand used as stimulus			up-regulated
SRNVIQISNDLENLRDLLHVLAFSKS [LPA-2, 26 amino acid peptide, residues 70-95 of helix III of the human leptin molecule; leptin peptide antagonist]	effectively inhibited the basal expression of p-Stat3	significantly inhibits the leptin up-regulation of Stat3 phosphorylation	

Reference: patent US8058228B2, “Leptin peptide antagonists” (Boston Biomedical Research Institute, priority 2004, dated 2011)
